Measured values published in the supplement of paper PMC10307832.

How the values were obtained:
Test in all cases: relative viability (nuclei count vs DMSO), 5 days (fraction); higher = more cells survive
BEN = test system: BEN
Summary of the method: (§1)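 After 5 days of treatment, lung cancer cells in 1536-well plates were fixed and stained in a single step (final 0.05% Triton X-100, 1% formaldehyde, 1 ug/ml Hoechst) and their nuclei counted on 4× images. Treatment had been applied by pin tool the day after seeding as one drug alone or as a fixed anchor-drug dose with five library-drug doses (not always all listed) in √10 steps. Relative viability is the nuclei count of treated wells divided by that of vehicle wells, and values are medians of duplicate plates.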

CAL-12T = test system: CAL-12T
Summary of the method: as §1

COR-L 105 = test system: COR-L 105
Summary of the method: as §1

COR-L23 = test system: COR-L23
Summary of the method: as §1

HARA = test system: HARA
Summary of the method: as §1

HCC-15 = test system: HCC-15
Summary of the method: as §1

HCC-366 = test system: HCC-366
Summary of the method: as §1

HCC-44 = test system: HCC-44
Summary of the method: as §1

HCC-827 = test system: HCC-827
Summary of the method: as §1

HOP-62 = test system: HOP-62
Summary of the method: as §1

LC-2-ad = test system: LC-2-ad
Summary of the method: as §1

LCLC-97TM1 = test system: LCLC-97TM1
Summary of the method: as §1

LU99A = test system: LU99A
Summary of the method: as §1

LXF-289 = test system: LXF-289
Summary of the method: as §1

NCI-H1993 = test system: NCI-H1993
Summary of the method: as §1

NCI-H2009 = test system: NCI-H2009
Summary of the method: as §1

NCI-H2087 = test system: NCI-H2087
Summary of the method: as §1

NCI-H2126 = test system: NCI-H2126
Summary of the method: as §1

NCI-H2170 = test system: NCI-H2170
Summary of the method: as §1

NCI-H727 = test system: NCI-H727
Summary of the method: as §1

PC-14 = test system: PC-14
Summary of the method: as §1

PC-3 [JPC-3] = test system: PC-3 [JPC-3]
Summary of the method: as §1

SK-MES-1 = test system: SK-MES-1
Summary of the method: as §1

## Cc1cnc(-c2cnc(NCCNc3ccc(C#N)cn3)nc2-c2ccc(Cl)cc2Cl)[nH]1 + Cc1nc(NC(=O)N2CCC[C@H]2C(N)=O)sc1-c1ccnc(C(C)(C)C(F)(F)F)c1 [Alpelisib] (partner 2 µM)
BEN; first compound 0.08 µM
  relative viability: 1.22
BEN; first compound 0.253 µM
  relative viability: 0.973
BEN; first compound 0.8 µM
  relative viability: 0.964
BEN; first compound 2.53 µM
  relative viability: 1.04
CAL-12T; first compound 0.08 µM
  relative viability: 1.2
CAL-12T; first compound 0.253 µM
  relative viability: 1.16
CAL-12T; first compound 0.8 µM
  relative viability: 1.2
CAL-12T; first compound 2.53 µM
  relative viability: 0.848
COR-L 105; first compound 0.08 µM
  relative viability: 0.994
COR-L 105; first compound 0.253 µM
  relative viability: 0.927
COR-L 105; first compound 0.8 µM
  relative viability: 1.11
COR-L 105; first compound 2.53 µM
  relative viability: 0.612
COR-L23; first compound 0.08 µM
  relative viability: 0.918
COR-L23; first compound 0.253 µM
  relative viability: 0.649
COR-L23; first compound 0.8 µM
  relative viability: 0.826
COR-L23; first compound 2.53 µM
  relative viability: 0.774
HARA; first compound 0.08 µM
  relative viability: 0.994
HARA; first compound 0.253 µM
  relative viability: 0.673
HARA; first compound 0.8 µM
  relative viability: 0.746
HARA; first compound 2.53 µM
  relative viability: 0.827
HCC-15; first compound 0.08 µM
  relative viability: 0.857
HCC-15; first compound 0.253 µM
  relative viability: 0.815
HCC-15; first compound 0.8 µM
  relative viability: 0.853
HCC-15; first compound 2.53 µM
  relative viability: 0.881
HCC-366; first compound 0.08 µM
  relative viability: 0.369
HCC-366; first compound 0.253 µM
  relative viability: 0.364
HCC-366; first compound 0.8 µM
  relative viability: 0.33
HCC-366; first compound 2.53 µM
  relative viability: 0.32
HCC-44; first compound 0.08 µM
  relative viability: 0.853
HCC-44; first compound 0.253 µM
  relative viability: 0.768
HCC-44; first compound 0.8 µM
  relative viability: 0.823
HCC-44; first compound 2.53 µM
  relative viability: 0.926
HCC-827; first compound 0.08 µM
  relative viability: 1.08
HCC-827; first compound 0.8 µM
  relative viability: 0.99
HCC-827; first compound 2.53 µM
  relative viability: 0.929
HOP-62; first compound 0.08 µM
  relative viability: 1
HOP-62; first compound 0.253 µM
  relative viability: 0.902
HOP-62; first compound 0.8 µM
  relative viability: 0.958
HOP-62; first compound 2.53 µM
  relative viability: 1.14
LC-2-ad; first compound 0.08 µM
  relative viability: 1.04
LC-2-ad; first compound 0.8 µM
  relative viability: 0.832
LC-2-ad; first compound 2.53 µM
  relative viability: 0.892
LCLC-97TM1; first compound 0.08 µM
  relative viability: 0.28
LCLC-97TM1; first compound 0.253 µM
  relative viability: 0.176
LCLC-97TM1; first compound 0.8 µM
  relative viability: 0.251
LCLC-97TM1; first compound 2.53 µM
  relative viability: 0.323
LU99A; first compound 0.08 µM
  relative viability: 0.606
LU99A; first compound 0.253 µM
  relative viability: 0.548
LU99A; first compound 0.8 µM
  relative viability: 0.557
LU99A; first compound 2.53 µM
  relative viability: 0.516
LXF-289; first compound 0.08 µM
  relative viability: 1.11
LXF-289; first compound 0.253 µM
  relative viability: 1
LXF-289; first compound 0.8 µM
  relative viability: 1.05
LXF-289; first compound 2.53 µM
  relative viability: 1.08
NCI-H1993; first compound 0.08 µM
  relative viability: 0.715
NCI-H1993; first compound 0.253 µM
  relative viability: 0.72
NCI-H1993; first compound 0.8 µM
  relative viability: 0.683
NCI-H1993; first compound 2.53 µM
  relative viability: 0.694
NCI-H2009; first compound 0.08 µM
  relative viability: 1.13
NCI-H2009; first compound 0.253 µM
  relative viability: 1.14
NCI-H2009; first compound 0.8 µM
  relative viability: 1.26
NCI-H2009; first compound 2.53 µM
  relative viability: 1.05
NCI-H2087; first compound 0.08 µM
  relative viability: 1.21
NCI-H2087; first compound 0.253 µM
  relative viability: 0.892
NCI-H2087; first compound 0.8 µM
  relative viability: 1.02
NCI-H2087; first compound 2.53 µM
  relative viability: 1.06
NCI-H2126; first compound 0.08 µM
  relative viability: 0.725
NCI-H2126; first compound 0.253 µM
  relative viability: 0.756
NCI-H2126; first compound 0.8 µM
  relative viability: 0.669
NCI-H2126; first compound 2.53 µM
  relative viability: 0.766
NCI-H2170; first compound 0.08 µM
  relative viability: 0.825
NCI-H2170; first compound 0.253 µM
  relative viability: 0.702
NCI-H2170; first compound 0.8 µM
  relative viability: 0.757
NCI-H2170; first compound 2.53 µM
  relative viability: 0.778
NCI-H727; first compound 0.08 µM
  relative viability: 0.505
NCI-H727; first compound 0.253 µM
  relative viability: 0.593
NCI-H727; first compound 0.8 µM
  relative viability: 0.566
NCI-H727; first compound 2.53 µM
  relative viability: 0.482
PC-14; first compound 0.08 µM
  relative viability: 0.927
PC-14; first compound 0.253 µM
  relative viability: 0.834
PC-14; first compound 0.8 µM
  relative viability: 0.924
PC-14; first compound 2.53 µM
  relative viability: 0.802
PC-3 [JPC-3]; first compound 0.08 µM
  relative viability: 1
PC-3 [JPC-3]; first compound 0.253 µM
  relative viability: 0.934
PC-3 [JPC-3]; first compound 0.8 µM
  relative viability: 1.02
PC-3 [JPC-3]; first compound 2.53 µM
  relative viability: 1.01
SK-MES-1; first compound 0.08 µM
  relative viability: 1.01
SK-MES-1; first compound 0.253 µM
  relative viability: 0.888
SK-MES-1; first compound 2.53 µM
  relative viability: 0.911
